Each structure is given as a SMILES string.

This note sets out measurements from US8729061B2, “Pyrrolidine derivatives” (Hoffmann-La Roche Inc., priority 2011, dated 2014).

Common to all, as to format: biochemical
One experiment deals with human Cat L (Homo sapiens (Human), UniProt P07711). In words: Cathepsin enzyme inhibition assay (fluorogenic peptide substrate), Cat L. Particulars: enzyme 1 nM, substrate Z-Val-Val-Arg-AMC 20 μM, pH 6.5. Here is the method:
(§1) Enzyme activity is measured by observing the increase in fluorescence intensity caused by cleavage of a peptide substrate containing a fluorophore whose emission is quenched in the intact peptide.
(§2) Assay buffer: 100 mM potassium phosphate pH 6.5, EDTA-Na 5 mM, Triton X-100 0.001%, DTT 5 mM.
(§3) Enzymes (all at 1 nM): human and mouse Cathepsin S, Cat K, Cat B, Cat L. Substrate (20 μM): Z-Val-Val-Arg-AMC, except for Cat K which uses Z-Leu-Arg-AMC (both from Bachem).
(§4) Excitation 360 nm, Emission 465 nm.
(§5) Enzyme is added to the substance dilutions in 96-well microtitre plates and the reaction is started with substrate. […] IC50 are calculated by standard methods. Inhibition of human Cat S, mouse Cat S, human Cat K, mouse Cat K, human Cat B, mouse Cat B, human Cat L and mouse Cat L have been measured separately.

In the next experiment the target is human Cat B (Homo sapiens (Human), UniProt P07858). Put plainly: Cathepsin enzyme inhibition assay (fluorogenic peptide substrate), Cat B. Conditions: enzyme 1 nM, substrate Z-Val-Val-Arg-AMC 20 μM, pH 6.5. As to the method:
as §1, §2, §3, §4, §5

Another experiment concerns the target human Cat K (Homo sapiens (Human), UniProt P43235). In words: Cathepsin enzyme inhibition assay (fluorogenic peptide substrate), Cat K. Conditions: enzyme 1 nM, substrate Z-Leu-Arg-AMC 20 μM, pH 6.5. As to the method: as §1, §2, §3, §4, §5
Another experiment concerns the target human Cathepsin S (Homo sapiens (Human), UniProt P25774). In words: Cathepsin enzyme inhibition assay (fluorogenic peptide substrate), Cat S. Particulars: enzyme 1 nM, substrate Z-Val-Val-Arg-AMC 20 μM, pH 6.5. Here is the method:
as §1, §2, §3, §4, §5

Sequence of human Cat K (P43235 115-329): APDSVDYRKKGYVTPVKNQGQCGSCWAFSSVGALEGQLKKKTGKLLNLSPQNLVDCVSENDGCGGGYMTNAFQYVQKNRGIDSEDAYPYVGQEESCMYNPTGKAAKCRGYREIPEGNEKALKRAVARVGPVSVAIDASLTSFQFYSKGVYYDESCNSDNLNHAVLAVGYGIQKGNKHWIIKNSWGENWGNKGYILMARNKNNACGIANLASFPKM
Sequence of human Cat L (P07711 114-333): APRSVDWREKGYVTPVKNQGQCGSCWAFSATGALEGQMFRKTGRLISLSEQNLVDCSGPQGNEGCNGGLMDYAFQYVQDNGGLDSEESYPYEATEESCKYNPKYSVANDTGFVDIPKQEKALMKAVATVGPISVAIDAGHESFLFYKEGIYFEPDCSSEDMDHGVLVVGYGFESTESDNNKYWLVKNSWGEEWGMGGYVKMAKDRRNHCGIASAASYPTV
Sequence of human Cathepsin S (P25774 115-331): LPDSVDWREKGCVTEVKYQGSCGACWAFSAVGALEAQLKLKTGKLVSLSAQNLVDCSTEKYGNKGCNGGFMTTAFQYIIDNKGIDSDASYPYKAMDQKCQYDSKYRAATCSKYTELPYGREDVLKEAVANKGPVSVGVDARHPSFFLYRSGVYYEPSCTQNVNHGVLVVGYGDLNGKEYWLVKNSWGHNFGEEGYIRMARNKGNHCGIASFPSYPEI

In the case of `CC[C@H](NC(=O)[C@@H]1C[C@@H](S(=O)(=O)c2ccccc2Cl)CN1C(=O)C1(c2ccc(Cl)cc2)CC1)C(=O)C(=O)NCCc1ccccc1` [Example 49, (2S,4R)-1-(1-(4-chlorophenyl)cyclopropanecarbonyl)-4-(2-chlorophenylsulfonyl)-N—((S)-1,2-dioxo-1-(phenethylamino)pentan-3-yl)pyrrolidine-2-carboxamide], the half-inhibitory concentration (IC50) (usually the midpoint of a concentration-inhibition curve) against human Cat L was 0.002 µM; against human Cat B, 0.0302 µM; against human Cat K, 0.0344 µM; at human Cathepsin S, 0.000901 µM.

With `CC(C)C[C@H](NC(=O)[C@@H]1C[C@@H](S(=O)(=O)c2ccccc2Cl)CN1C(=O)C1(c2ncc(Cl)cc2F)CC1)C(=O)C(=O)NC1CC1` [Example 59, (2S,4R)-1-(1-(5-chloro-3-fluoropyridin-2-yl)cyclopropanecarbonyl)-4-(2-chlorophenylsulfonyl)-N—((S)-1-(cyclopropylamino)-5-methyl-1,2-dioxohexan-3-yl)pyrrolidine-2-carboxamide], the IC50 against human Cat L amounted to 0.0064 µM; on human Cat B, 0.518 µM; against human Cat K, 0.141 µM; against human Cathepsin S, 0.00261 µM.

As to `CC[C@H](NC(=O)[C@@H]1C[C@@H](S(=O)(=O)c2ccccc2Cl)CN1C(=O)C1(c2ccc(Cl)cc2)CC1)C(=O)C(=O)NC1CC1` [Example 8, (2S,4R)-1-(1-(4-chlorophenyl)cyclopropanecarbonyl)-4-(2-chlorophenylsulfonyl)-N—((S)-1-(cyclopropylamino)-1,2-dioxopentan-3-yl)pyrrolidine-2-carboxamide], the IC50 against human Cat L was found to be 0.0043 µM; at human Cat B, 0.0627 µM; against human Cat K, 0.0276 µM; at human Cathepsin S, 0.000296 µM.

As for `CCC[C@H](NC(=O)[C@@H]1C[C@@H](S(=O)(=O)c2ccccc2C(F)(F)F)CN1C(=O)C1(c2ccc(Cl)cc2)CC1)C(=O)C(=O)NC1CC1` [Example 22, (2S,4R)-1-(1-(4-chlorophenyl)cyclopropanecarbonyl)-N—((S)-1-(cyclopropylamino)-1,2-dioxohexan-3-yl)-4-(2-(trifluoromethyl)phenylsulfonyl)pyrrolidine-2-carboxamide], the concentration for half-maximal inhibition (IC50) worked out at 0.0266 µM on human Cat L, 0.144 µM on human Cat B, 0.405 µM on human Cat K and 0.000983 µM at human Cathepsin S.

`CCC[C@H](NC(=O)[C@@H]1C[C@@H](S(=O)(=O)c2ccccc2C(F)(F)F)CN1C(=O)C1(c2ncc(Cl)cc2F)CC1)C(=O)C(=O)NC1CC1` [Example 20, (2S,4R)-1-(1-(5-chloro-3-fluoropyridin-2-yl)cyclopropanecarbonyl)-N—((S)-1-(cyclopropylamino)-1,2-dioxohexan-3-yl)-4-(2-(trifluoromethyl)phenylsulfonyl)pyrrolidine-2-carboxamide]: the IC50 on human Cat L came to 0.0185 µM; against human Cat B it was 0.245 µM; against human Cat K, 0.347 µM; on human Cathepsin S, 0.00056 µM.

As to `CC[C@H](NC(=O)[C@@H]1C[C@@H](S(=O)(=O)c2ccccc2Cl)CN1C(=O)C1(c2ccc(Cl)cc2)CC1)C(=O)C(=O)NC1CCOCC1` [Example 53, (2S,4R)-1-(1-(4-chlorophenyl)cyclopropanecarbonyl)-4-(2-chlorophenylsulfonyl)-N—((S)-1,2-dioxo-1-(tetrahydro-2H-pyran-4-ylamino)pentan-3-yl)pyrrolidine-2-carboxamide], the IC50 on human Cat L was found to be 0.0017 µM; at human Cat B, 0.188 µM; on human Cat K it was 0.0393 µM; against human Cathepsin S, 0.000676 µM.

Consider `CC[C@H](NC(=O)[C@@H]1C[C@@H](S(=O)(=O)c2ccccc2Cl)CN1C(=O)C1(c2ncc(Cl)cc2F)CC1)C(=O)C(=O)NC1CC1` [Example 25, (2S,4R)-1-(1-(5-chloro-3-fluoropyridin-2-yl)cyclopropanecarbonyl)-4-(2-chlorophenylsulfonyl)-N—((S)-1-(cyclopropylamino)-1,2-dioxopentan-3-yl)pyrrolidine-2-carboxamide], for which the IC50 at human Cat L worked out at 0.0098 µM; against human Cat B, 0.251 µM; against human Cat K it was 0.0977 µM; at human Cathepsin S, 0.000403 µM.

On to `CC(C)(NC(=O)[C@@H]1C[C@@H](S(=O)(=O)c2ccccc2Cl)CN1C(=O)C1(c2ccc(Cl)cc2)CC1)C(=O)C(=O)NC1CC1` [Example 26, (2S,4R)-1-(1-(4-chlorophenyl)cyclopropanecarbonyl)-4-(2-chlorophenylsulfonyl)-N-(4-(cyclopropylamino)-2-methyl-3,4-dioxobutan-2-yl)pyrrolidine-2-carboxamide], for which the IC50 on human Cat L was 3.1 µM; at human Cat B, 25 µM; against human Cat K, 25 µM; on human Cathepsin S, 0.0105 µM.

For `CC[C@H](NC(=O)[C@@H]1C[C@@H](S(=O)(=O)c2ccccc2Cl)CN1C(=O)C1(c2ccc(Cl)cc2)CC1)C(=O)C(=O)NCCOC` [Example 54, (2S,4R)-1-(1-(4-chlorophenyl)cyclopropanecarbonyl)-4-(2-chlorophenylsulfonyl)-N—((S)-1-(2-methoxyethylamino)-1,2-dioxopentan-3-yl)pyrrolidine-2-carboxamide], the IC50 came out at 0.0026 µM on human Cat L, 0.0854 µM against human Cat B, 0.082 µM against human Cat K and 0.00063 µM against human Cathepsin S.

Regarding `CCCCNC(=O)C(=O)[C@H](CC)NC(=O)[C@@H]1C[C@@H](S(=O)(=O)c2ccccc2Cl)CN1C(=O)C1(c2ncc(Cl)cc2F)CC1` [Example 60, (2S,4R)—N—((S)-1-(butylamino)-1,2-dioxopentan-3-yl)-1-(1-(5-chloro-3-fluoropyridin-2-yl)cyclopropanecarbonyl)-4-(2-chlorophenylsulfonyl)pyrrolidine-2-carboxamide], the IC50 was 0.0061 µM at human Cat L, 0.354 µM on human Cat B, 0.144 µM against human Cat K and 0.00287 µM against human Cathepsin S.

Take `CCC[C@H](NC(=O)[C@@H]1C[C@@H](S(=O)(=O)c2ccccc2Cl)CN1C(=O)C1(c2ccc(Cl)cc2)CC1)C(=O)C(=O)NCc1ccccc1` [Example 35, (2S,4R)—N—((S)-1-(benzylamino)-1,2-dioxohexan-3-yl)-1-(1-(4-chlorophenyl)cyclopropanecarbonyl)-4-(2-chlorophenylsulfonyl)pyrrolidine-2-carboxamide]: the IC50 was 0.0098 µM on human Cat L, 0.031 µM at human Cat B, 0.0215 µM against human Cat K and 0.00121 µM at human Cathepsin S.

As for `CC[C@H](NC(=O)[C@@H]1C[C@@H](S(=O)(=O)c2ccccc2Cl)CN1C(=O)C1(c2ccc(Cl)cc2)CC1)C(=O)c1nc2ccccc2o1` [Example 12, (2S,4R)—N—((S)-1-(benzo[d]oxazol-2-yl)-1-oxobutan-2-yl)-1-(1-(4-chlorophenyl)cyclopropanecarbonyl)-4-(2-chlorophenylsulfonyl)pyrrolidine-2-carboxamide], the IC50 stood at 0.0212 µM against human Cat L, 0.183 µM against human Cat B, 0.36 µM against human Cat K and 0.000737 µM against human Cathepsin S.

Turning to `CC[C@H](NC(=O)[C@@H]1C[C@@H](S(=O)(=O)c2ccccc2Cl)CN1C(=O)C1(c2ccc(Br)cc2)CC1)C(=O)C(=O)NC1CC1` [Example 15, (2S,4R)-1-(1-(4-bromophenyl)cyclopropanecarbonyl)-4-(2-chlorophenylsulfonyl)-N—((S)-1-(cyclopropylamino)-1,2-dioxopentan-3-yl)pyrrolidine-2-carboxamide], the IC50 against human Cat L turned out to be 0.0082 µM; against human Cat B it was 0.0985 µM; against human Cat K it was 0.0448 µM; against human Cathepsin S, 0.00052 µM.
